Here are results for 40 molecules from patent publication US20250197428A1, “INHIBITORS OF KIF18A AND USES THEREOF” (ACCENT THERAPEUTICS, INC., priority 2022, published 2025).

In one assay the target is KIF18A (Homo sapiens (Human), UniProt Q8NI77). Put plainly: KIF18A Biochemical Assay (ATPase, ADP-Glo).
Another assay deals with OVCAR-3 cells. Kind of assay: In vitro anti-proliferative activity assay in cancer cell line OVCAR-3 (CellTiter-Glo, 4- or 7-day). The format is cell-based. To be noted: Homo sapiens, read-out: OVCAR-3 cellular antiproliferation assay IC50.
Setting [1] is: OVCAR-3, assay duration not indicated.

Read-outs that look alike come from different tables or passages of the source. Some results are limits rather than exact numbers.

KIF18A, sequence (Q8NI77 1-367): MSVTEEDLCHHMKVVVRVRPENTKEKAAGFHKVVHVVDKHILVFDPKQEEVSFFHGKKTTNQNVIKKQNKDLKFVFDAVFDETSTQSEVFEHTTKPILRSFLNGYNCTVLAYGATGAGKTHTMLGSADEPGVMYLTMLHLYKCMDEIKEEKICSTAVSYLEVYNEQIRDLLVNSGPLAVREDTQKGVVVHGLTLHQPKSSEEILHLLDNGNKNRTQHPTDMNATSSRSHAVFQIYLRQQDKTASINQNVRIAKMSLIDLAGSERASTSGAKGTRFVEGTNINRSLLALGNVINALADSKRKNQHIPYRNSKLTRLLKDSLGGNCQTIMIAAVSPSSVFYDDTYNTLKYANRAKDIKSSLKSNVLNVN
KIF18A, sequence (P02550 whole entry partner): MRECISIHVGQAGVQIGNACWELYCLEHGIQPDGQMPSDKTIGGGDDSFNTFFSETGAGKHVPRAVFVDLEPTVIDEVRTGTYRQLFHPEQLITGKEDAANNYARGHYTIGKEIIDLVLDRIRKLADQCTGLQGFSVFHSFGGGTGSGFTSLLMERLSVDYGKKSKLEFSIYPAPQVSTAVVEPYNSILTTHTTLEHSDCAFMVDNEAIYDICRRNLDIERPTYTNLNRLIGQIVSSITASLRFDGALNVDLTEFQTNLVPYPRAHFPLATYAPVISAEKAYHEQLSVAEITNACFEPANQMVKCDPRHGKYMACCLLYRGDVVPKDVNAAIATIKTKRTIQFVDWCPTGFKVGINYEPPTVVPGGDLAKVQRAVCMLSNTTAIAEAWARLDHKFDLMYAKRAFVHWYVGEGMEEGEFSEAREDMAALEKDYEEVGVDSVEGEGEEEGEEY
KIF18A, sequence (P02554 whole entry partner): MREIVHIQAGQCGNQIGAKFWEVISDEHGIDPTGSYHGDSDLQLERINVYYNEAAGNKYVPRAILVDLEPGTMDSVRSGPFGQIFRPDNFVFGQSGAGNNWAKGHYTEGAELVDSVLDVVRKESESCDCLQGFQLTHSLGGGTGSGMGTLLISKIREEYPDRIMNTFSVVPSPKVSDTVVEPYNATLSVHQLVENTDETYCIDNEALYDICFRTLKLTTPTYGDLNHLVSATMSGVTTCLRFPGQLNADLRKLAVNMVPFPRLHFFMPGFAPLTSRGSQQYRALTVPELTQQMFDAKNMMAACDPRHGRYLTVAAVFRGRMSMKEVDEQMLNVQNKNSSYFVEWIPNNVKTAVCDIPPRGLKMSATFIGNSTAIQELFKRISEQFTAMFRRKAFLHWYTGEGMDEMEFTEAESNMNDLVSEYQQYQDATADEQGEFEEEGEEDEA

In the case of `C[Si]1(C)CCN(c2cc(NS(=O)(=O)CCO)ccc2C(=O)Nc2cccc(S(=O)(=O)C3CCCC3)n2)CC1` [Example 22], the IC50 against KIF18A was 100 to 500 nM; in the assay on OVCAR-3 cells (OVCAR-3, 96 h, 4-day assay), below 100 nM.

For `Cc1cc(NC(=O)c2ccc(NS(=O)(=O)CCO)cc2N2CC[C@@]3(C(C)(F)F)C[C@H]3C2)nc(N2CCC(F)(F)CC2)n1` [Example 80], the IC50 was 100 to 500 nM against KIF18A and 100 to 500 nM in the assay with OVCAR-3 cells (OVCAR-3, 168 h, 7-day assay).

Consider `Cc1cc(NC(=O)c2ccc(NS(=O)(=O)CCO)cc2N2CC[C@]3(C(F)F)C[C@@H]3C2)nc(OC[C@H](O)C(F)(F)F)n1` [Example 67], for which the IC50 against KIF18A was above 1000 nM; with OVCAR-3 cells (OVCAR-3, 168 h, 7-day assay) it was above 1000 nM.

As to `Cc1cc(NC(=O)c2cc(F)c(NS(=O)(=O)CCO)cc2N2CC[Si](C)(C)CC2)nc(N2CCC(F)(F)CC2)n1` [Example 103], the IC50 was below 100 nM on KIF18A and 100 to 500 nM in the assay with OVCAR-3 cells (OVCAR-3, 168 h, 7-day assay).

For `Cc1cc(NC(=O)c2ccc(NS(=O)(=O)CCO)cc2N2CC[C@@]3(C(F)F)C[C@H]3C2)nc(OC[C@H](O)C(F)(F)F)n1` [Example 68], the IC50 against KIF18A was above 1000 nM; in the assay on OVCAR-3 cells (OVCAR-3, 168 h, 7-day assay), above 1000 nM.

As for `Cc1cc(NC(=O)c2ccc(NS(=O)(=O)CCO)cc2N2CC[C@]3(CO)C[C@@H]3C2)nc(N2CCC(F)(F)CC2)n1` [Example 40], the IC50 was above 1000 nM at KIF18A and above 1000 nM in the assay with OVCAR-3 cells (OVCAR-3, 96 h, 4-day assay).

For the molecule `C[Si]1(C)CCN(c2cc(NS(=O)(=O)CCO)cc(F)c2C(=O)Nc2cccc(OC[C@@H](O)C(F)(F)F)n2)CC1` [Example 123], the IC50 is below 100 nM against KIF18A and 500 to 1000 nM in the assay with OVCAR-3 cells (OVCAR-3, 168 h, 7-day assay).

Regarding `CO[C@]12CCN(c3cc(NS(=O)(=O)CCO)ccc3C(=O)Nc3cc(C)nc(N4CCC(F)(F)CC4)n3)C[C@H]1C2` [Example 81], the IC50 at KIF18A was below 100 nM; with OVCAR-3 cells (OVCAR-3, 168 h, 7-day assay) it was 500 to 1000 nM.

On to `C[Si]1(C)CCN(c2cc(S(=O)(=O)NCCO)ccc2C(=O)Nc2cccc(OCCC(F)(F)F)n2)CC1` [Example 99], for which the IC50 against KIF18A is below 100 nM; in the assay with OVCAR-3 cells (OVCAR-3, 168 h, 7-day assay), below 100 nM.

As to `C[Si]1(C)CCN(c2cc(NS(C)(=O)=O)ccc2C(=O)Nc2cccc(OC[C@H](O)C(F)(F)F)n2)CC1` [Example 128], the IC50 at KIF18A was below 100 nM; in the assay with OVCAR-3 cells (OVCAR-3, 168 h, 7-day assay), 100 to 500 nM.

On to `Cc1cc(NC(=O)c2ccc(NS(=O)(=O)NCCO)cc2N2CC[C@]3(C)C[C@@H]3C2)nc(N2CCC(F)(F)CC2)n1` [Example 43], for which the IC50 at KIF18A is below 100 nM; with OVCAR-3 cells (OVCAR-3, 96 h, 4-day assay), above 1000 nM.

Take `Cc1cc(NC(=O)c2ccc(NS(C)(=O)=O)cc2N2CC[C@]3(C)C[C@@H]3C2)nc(N2CCC(F)(F)CC2)n1` [Example 33]: the IC50 was below 100 nM against KIF18A and 100 to 500 nM with OVCAR-3 cells (OVCAR-3, 96 h, 4-day assay).

On to `Cc1cc(NC(=O)c2ccc(NS(=O)(=O)NCCO)cc2N2CC[C@@]3(C(F)F)C[C@H]3C2)nc(N2CCC(F)(F)CC2)n1` [Example 57], for which the IC50 on KIF18A was 100 to 500 nM; in the assay on OVCAR-3 cells (OVCAR-3, 168 h, 7-day assay), above 1000 nM.

For `Cc1cc(NC(=O)c2c(F)cc(NS(=O)(=O)CCO)cc2N2CC[C@]3(C)C[C@@H]3C2)nc(N2CCC(F)(F)CC2)n1` [Example 38], the IC50 is below 100 nM against KIF18A and 100 to 500 nM in the assay with OVCAR-3 cells (setting [1]).

As for `Cc1cc(NC(=O)c2c(F)cc(NS(=O)(=O)CCO)c(F)c2N2CC[Si](C)(C)CC2)nc(N2CCC(F)(F)CC2)n1` [Example 116], the IC50 against KIF18A was 500 to 1000 nM; in the assay with OVCAR-3 cells (OVCAR-3, 168 h, 7-day assay), above 1000 nM.

As for `C[Si]1(C)CCN(c2cc(NS(=O)(=O)CCO)c(F)cc2C(=O)Nc2ccnc(N3CCC(F)(F)CC3)n2)CC1` [Example 13], the IC50 is below 100 nM against KIF18A and 500 to 1000 nM with OVCAR-3 cells (OVCAR-3, 96 h, 4-day assay).

With `C[Si]1(C)CCN(c2cc(NS(=O)(=O)CCO)ccc2C(=O)Nc2cccc(OC[C@H](O)C(F)(F)F)n2)CC1` [Example 122], the IC50 against KIF18A is below 100 nM; with OVCAR-3 cells (OVCAR-3, 168 h, 7-day assay), below 100 nM.

Turning to `Cc1cc(NC(=O)c2ccc(NS(=O)(=O)CCO)cc2N2CC[C@@]3(C(F)F)C[C@H]3C2)nc(N2CCC(F)(F)CC2)n1` [Example 59], the IC50 against KIF18A was below 100 nM; with OVCAR-3 cells (OVCAR-3, 168 h, 7-day assay), 100 to 500 nM.

On to `Cc1cc(NC(=O)c2ccc(S(=O)(=O)NCCO)cc2N2CC[C@]3(C(F)F)C[C@@H]3C2)nc(N2CCC(F)(F)CC2)n1` [Example 77], for which the IC50 against KIF18A is 100 to 500 nM; in the assay with OVCAR-3 cells (OVCAR-3, 168 h, 7-day assay) it was 100 to 500 nM.

`C[Si]1(C)CCN(c2cc(S(=O)(=O)NCCO)ccc2C(=O)Nc2cccc(OC[C@@H](O)C(F)(F)F)n2)CC1` [Example 131]: the IC50 against KIF18A was below 100 nM; in the assay with OVCAR-3 cells (OVCAR-3, 168 h, 7-day assay), below 100 nM.

Consider `C[Si]1(C)CCN(c2cc(NS(=O)(=O)CCO)ccc2C(=O)Nc2ccnc(C3CC3)n2)CC1` [Example 15], for which the IC50 against KIF18A was below 100 nM; in the assay on OVCAR-3 cells (OVCAR-3, 96 h, 4-day assay), above 1000 nM.

Regarding `Cc1cc(NC(=O)c2ccc(NS(=O)(=O)CCO)cc2N2CC[C@]3(C(F)F)C[C@@H]3C2)nc(OC[C@@H](O)C(F)(F)F)n1` [Example 73], the IC50 was above 1000 nM on KIF18A and above 1000 nM with OVCAR-3 cells (OVCAR-3, 168 h, 7-day assay).

Turning to `COC[C@]12CCN(c3cc(NS(=O)(=O)CCO)ccc3C(=O)Nc3cc(C)nc(N4CCC(F)(F)CC4)n3)C[C@H]1C2` (single isomer, unassigned) [Example 49a], the IC50 against KIF18A is below 100 nM; with OVCAR-3 cells (OVCAR-3, 168 h, 7-day assay), 100 to 500 nM.

`Cc1cc(NC(=O)c2ccc(NS(=O)(=O)CCO)cc2N2CC[C@]3(C(F)F)C[C@@H]3C2)nc(N2CCC(F)(F)CC2)n1` [Example 29a, 2-((1S,6R)-6-(difluoromethyl)-3-azabicyclo[4.1.0]heptan-3-yl)-N-(2-(4,4-difluoropiperidin-1-yl)-6-methylpyrimidin-4-yl)-4-((2-hydroxyethyl)sulfonamido)benzamide]: the IC50 against KIF18A was below 100 nM; in the assay with OVCAR-3 cells (OVCAR-3, 96 h, 4-day assay), below 100 nM.

`C[Si]1(C)CCN(c2cc(NS(=O)(=O)CCO)ccc2NC(=O)c2ccnc(N3CCC(F)(F)CC3)n2)CC1` [Example 23]: the IC50 against KIF18A lay in the range of 100 to 500 nM; with OVCAR-3 cells (OVCAR-3, 96 h, 4-day assay), 100 to 500 nM.

On to `Cc1cc(NC(=O)c2ccc(NS(=O)(=O)CCO)cc2N2CC[C@]3(F)CC[C@@H]3C2)nc(N2CCC(F)(F)CC2)n1` (single isomer, unassigned) [Example 50a], for which the IC50 was below 100 nM against KIF18A and 100 to 500 nM with OVCAR-3 cells (OVCAR-3, 168 h, 7-day assay).

For the molecule `Cc1cc(NC(=O)c2ccc(NS(=O)(=O)NCCO)cc2N2CC[C@@]3(C)C[C@H]3C2)nc(N2CCC(F)(F)CC2)n1` [Example 42], the IC50 is below 100 nM on KIF18A and above 1000 nM in the assay with OVCAR-3 cells (OVCAR-3, 96 h, 4-day assay).

For the molecule `CC1CN(c2cccc(NC(=O)c3ccc(S(=O)(=O)NCCO)cc3N3CC[Si](C)(C)CC3)n2)CCO1` (centres unmarked) [Example 18], the IC50 against KIF18A is below 100 nM; in the assay with OVCAR-3 cells (OVCAR-3, 96 h, 4-day assay), below 100 nM.

Consider `Cc1cc(NC(=O)c2ccc(NS(=O)(=O)CCO)cc2N2CC[C@]3(C(C)(F)F)C[C@@H]3C2)nc(N2CCC(F)(F)CC2)n1` [Example 79], for which the IC50 on KIF18A is 100 to 500 nM; in the assay with OVCAR-3 cells (OVCAR-3, 168 h, 7-day assay), above 1000 nM.

In the case of `Cc1cc(NC(=O)c2ccc(NS(=O)(=O)CCO)cc2N2CCC3(C(F)F)CC3C2)nc(N2CCC(F)(F)CC2)n1` (centres unmarked) [Example 41], the IC50 on KIF18A and in the assay with OVCAR-3 cells (setting [1]) was below 100 nM each time.

With `CC1CN(c2cccc(NC(=O)c3ccc(NS(=O)(=O)CCO)cc3N3CC[Si](C)(C)CC3)n2)CCO1` (centres unmarked) [Example 19], the IC50 on KIF18A was below 100 nM; in the assay on OVCAR-3 cells (OVCAR-3, 96 h, 4-day assay) it was below 100 nM.

Consider `C[Si]1(C)CCN(c2cc(NS(=O)(=O)NCCO)ccc2C(=O)Nc2cccc(OC[C@H](O)C(F)(F)F)n2)CC1` [Example 126], for which the IC50 against KIF18A was below 100 nM; in the assay with OVCAR-3 cells (OVCAR-3, 168 h, 7-day assay), 100 to 500 nM.

Turning to `C[Si]1(C)CCN(c2cc(NS(=O)(=O)CCO)ccc2C(=O)Nc2cccc(N3CCC(F)(F)CC3)n2)CC1` [Example 3, N-(6-(4,4-difluoropiperidin-1-yl)pyridin-2-yl)-2-(4,4-dimethyl-1,4-azasilinan-1-yl)-4-((2-hydroxyethyl)sulfonamido)benzamide], the IC50 at KIF18A is below 100 nM; in the assay on OVCAR-3 cells (OVCAR-3, 96 h, 4-day assay) it was below 100 nM.

Consider `Cc1cc(NC(=O)c2ccc(NS(=O)(=O)C(C)CO)cc2N2CC[Si](C)(C)CC2)nc(N2CC(F)(F)C2)c1` (centres unmarked) [Example 114], for which the IC50 against KIF18A is below 100 nM; in the assay on OVCAR-3 cells (OVCAR-3, 168 h, 7-day assay), below 100 nM.

Turning to `Cc1cc(NC(=O)c2ccc(NS(=O)(=O)CCO)cc2N2CC[C@]3(C(F)F)C[C@@H]3C2)nc(N2CCC(F)(F)CC2)c1` [Example 65], the IC50 at KIF18A is below 100 nM; with OVCAR-3 cells (OVCAR-3, 168 h, 7-day assay) it was below 100 nM.

For `Cc1cc(NC(=O)c2ccc(NS(C)(=O)=O)cc2N2CC[C@@]3(C(F)F)C[C@H]3C2)nc(N2CCC(F)(F)CC2)n1` [Example 55], the IC50 at KIF18A is below 100 nM; in the assay on OVCAR-3 cells (OVCAR-3, 168 h, 7-day assay), 500 to 1000 nM.

As for `C[Si]1(C)CCN(c2cc(NS(=O)(=O)NCCO)ccc2C(=O)Nc2cccc(OC[C@@H](O)C(F)(F)F)n2)CC1` [Example 125], the IC50 against KIF18A is below 100 nM; in the assay with OVCAR-3 cells (OVCAR-3, 168 h, 7-day assay), 100 to 500 nM.

In the case of `C[Si]1(C)CCN(c2cnccc2C(=O)Nc2cccc(S(=O)(=O)N3CCC(F)(F)CC3)c2)CC1` [Example 27], the IC50 is above 1000 nM against KIF18A and above 1000 nM in the assay on OVCAR-3 cells (OVCAR-3, 96 h, 4-day assay).

Take `Cc1cc(NC(=O)c2ccc(NS(C)(=O)=O)cc2N2CC[C@@]3(C)C[C@H]3C2)nc(N2CCC(F)(F)CC2)n1` [Example 32]: the IC50 is below 100 nM against KIF18A and above 1000 nM in the assay with OVCAR-3 cells (OVCAR-3, 96 h, 4-day assay).

As for `C[Si]1(C)CCN(c2cc(S(=O)(=O)CCO)ccc2C(=O)Nc2cccc(OC[C@@H](O)C(F)(F)F)n2)CC1` [Example 129], the IC50 against KIF18A is below 100 nM; in the assay with OVCAR-3 cells (OVCAR-3, 168 h, 7-day assay), 100 to 500 nM.
